Reference: publication PMC6067752, “Investigations on the mode of action of gephyronic acid, an inhibitor of eukaryotic protein translation from myxobacteria” (PLoS ONE, 2018)

What was measured:
[1] = biological target: T1, eukaryotic initiation factor 2 subunit alpha (eIF2α) (Homo sapiens, UniProt P05198); assay: pull-down with streptavidin beads, western blot; assay type: biochemical; settings: KB-3-1 cell lysate; native protein; 4 °C 1 h with compound; labelled compound; indirect binding evidence
T1 construct: gene EIF2S1; native endogenous protein in KB-3-1 cell lysate (M-PER), 36 kDa band; alpha subunit of the heterotrimeric eIF2 complex; detected by western blot

[2] = biological target: T1, eukaryotic initiation factor 2 subunit alpha (eIF2α); assay: DARTS (pronase protection, western blot); assay type: biochemical; settings: KB-3-1 cell lysate; native protein; 2 h at room temperature with compound, pronase 30 min at 37 °C; indirect binding evidence
PC-3 = assay: cells; set-up: species or system transformed mammalian cell lines; MTT assay (formazan absorbance at 595 nm), anti-proliferative activity on transformed cell lines; settings: Homo sapiens, PC-3; read-out: Gephyronic acid IC50
A-549 = assay: cells; set-up: species or system transformed mammalian cell lines; MTT assay (formazan absorbance at 595 nm), anti-proliferative activity on transformed cell lines; settings: Homo sapiens, A549; read-out: Gephyronic acid IC50
MCF-7 = assay: cells; set-up: species or system transformed mammalian cell lines; MTT assay (formazan absorbance at 595 nm), anti-proliferative activity on transformed cell lines; settings: Homo sapiens, MCF7; read-out: Gephyronic acid IC50
L-929 = assay: cells; set-up: species or system transformed mammalian cell lines; MTT assay (formazan absorbance at 595 nm), anti-proliferative activity on transformed cell lines; settings: Mus musculus, L929; read-out: Gephyronic acid IC50
KB-3-1 = assay: cells; set-up: species or system transformed mammalian cell lines; MTT assay (formazan absorbance at 595 nm), anti-proliferative activity on transformed cell lines; settings: Homo sapiens, KB 3-1; read-out: Gephyronic acid IC50

T1 sequence (P05198 whole entry): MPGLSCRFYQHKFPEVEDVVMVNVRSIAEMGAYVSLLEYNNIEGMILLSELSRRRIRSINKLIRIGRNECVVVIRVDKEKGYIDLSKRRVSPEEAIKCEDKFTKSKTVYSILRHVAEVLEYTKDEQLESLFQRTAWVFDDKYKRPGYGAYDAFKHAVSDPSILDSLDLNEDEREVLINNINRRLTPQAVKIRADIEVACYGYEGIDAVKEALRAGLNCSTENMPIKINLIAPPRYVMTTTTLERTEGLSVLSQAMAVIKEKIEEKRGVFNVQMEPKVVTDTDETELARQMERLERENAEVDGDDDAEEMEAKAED

Compound	pull-down with streptavidin beads, western blot [1]	DARTS (pronase protection, western blot) [2]	IC50 (PC-3) [nM]	IC50 (A-549) [nM]	IC50 (MCF-7) [nM]	IC50 (L-929) [nM]	IC50 (KB-3-1) [nM]
COC(=O)C[C@H](OC(=O)CCCC[C@@H]1SC[C@@H]2NC(=O)N[C@@H]21)[C@@H](C)[C@H](OC)C(C)(C)C(=O)[C@@H](C)C[C@H](C)[C@H](O)[C@]1(C)O[C@@H]1[C@@H](C)C=C(C)C [4b, biotinylated GA methyl ester 4b]	eIF2α was clearly present in preparations with biotinylated GA ester						
CO[C@@H]([C@H](C)[C@@H](O)CC(=O)O)C(C)(C)C(=O)[C@@H](C)C[C@H](C)[C@H](O)[C@@]1(C)O[C@@H]1[C@@H](C)C=C(C)C [compound 1, gephyronic acid]		GA binding protected the initiation factor eIF2α in a dose dependent manner.	6	8	14	100	14
